Test results taken from PMC5109486, “Computational Drug Target Screening through Protein Interaction Profiles” (Scientific Reports, 2016).
Like-named read-outs stand apart in the source and are kept apart here.

Assays:
hCOX-1 = target: T1, hCOX-1 (Homo sapiens, UniProt P23219); assay: hCOX-1 activity, TMPD oxidation, human platelet microsomes, arachidonic acid substrate; assay type: biochemical; conditions: for inhibition at 25 µM: read-out: % enzymatic inhibition of hCOX-1 at 25 μM, compounds precipitated at higher concentrations
T1 construct: using arachidonic acid as substrate for hCOX-1 from human platelet microsomes; from tissue; host or cells: microsomes of human platelets isolated from buffy coats
T1 sequence (P23219 24-599): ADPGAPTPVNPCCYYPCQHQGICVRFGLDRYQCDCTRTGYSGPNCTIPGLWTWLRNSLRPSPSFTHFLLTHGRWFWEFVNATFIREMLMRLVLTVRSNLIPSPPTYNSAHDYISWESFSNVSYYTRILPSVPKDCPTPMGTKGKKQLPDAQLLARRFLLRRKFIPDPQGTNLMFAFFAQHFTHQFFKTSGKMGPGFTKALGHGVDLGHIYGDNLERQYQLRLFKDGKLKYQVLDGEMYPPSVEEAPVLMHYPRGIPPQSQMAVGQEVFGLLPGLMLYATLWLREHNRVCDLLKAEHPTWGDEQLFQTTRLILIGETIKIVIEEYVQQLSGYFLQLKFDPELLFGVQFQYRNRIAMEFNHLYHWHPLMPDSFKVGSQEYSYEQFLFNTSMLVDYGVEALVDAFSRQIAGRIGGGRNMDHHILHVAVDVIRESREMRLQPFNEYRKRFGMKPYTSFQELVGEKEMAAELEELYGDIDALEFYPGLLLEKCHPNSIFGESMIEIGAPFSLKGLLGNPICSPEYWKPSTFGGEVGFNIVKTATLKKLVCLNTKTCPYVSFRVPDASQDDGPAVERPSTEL
Procedure: Human platelets were isolated by centrifugation from buffy coats obtained from the Centro de Transfusion de Galicia (Santiago de Compostela, Spain) and prepared as described.
The upper layer obtained in this centrifugation, containing platelet rich plasma, was gently removed and centrifuged at 850 g for 20 min at 4 °C in a centrifuge (J2-MI, Beckman Instruments, Inc., Palo Alto, California, USA). The platelet pellet was recovered, resuspended with washing buffer, and centrifuged again at 850 g for 20 min at 4 °C. To prepare human platelet microsomes, the resultant platelet pellet of the above centrifugation was resuspended in 7 mL of sodium phosphate buffer (10 mM, pH 7.4), sonicated at 50 W for 50 s (5 pulses of 10 s), and centrifuged at 850 g for 20 min at 4 °C in a refrigerated centrifuge. The pellet was discarded and the supernatant was subsequently centrifuged at 10 000 g for 10 min at 4 °C in the same centrifuge. The pellet obtained in this centrifugation was discarded and the supernatant was finally centrifuged at 100 000 g for 1 h at 4 °C in an ultracentrifuge (Beckman Instruments, Inc., Palo Alto, California, USA).
The biological evaluation of the test drugs on hCOX-1 activity (bisdioxygenase and peroxidase reactions) was investigated by measuring their effects on the oxidation of N, N, N’, N’-tetramethyl-p-phenylenediamine (TMPD) to N, N, N’, N’-tetramethyl-p-phenylene-diimine, using arachidonic acid as substrate for hCOX-1 from human platelet microsomes (obtained as described in the above paragraph). The formation of N, N, N’, N’-tetramethyl-p-phenylenediimine (a coloured compound) from N, N, N’, N’-tetramethyl-p-phenylenediamine catalyzed by COX can be detected spectrophotometrically at 600 nm. In this study, hCOX activity was evaluated using a spectrophotometric method. Briefly, 0.1 mL of Tris–HCl buffer (100 mM, pH 8) containing […], […], various concentrations of the test drugs, and appropriate amounts of hCOX-1 (0.08 A600 U/min) were incubated for short periods of time (3–5 min) to avoid a notable loss of COX activity at 37 °C in a flat-bottom 96-well microtest plate (BD Biosciences, Franklin Lakes, NJ, USA) placed in the dark multimode microplate reader chamber. After this incubation period, the reaction was started by adding (final concentration) […] and the formation of N, N,N’,N’-tetramethyl-p-phenylenediimine from TMPD, i.e., the increase in absorbance at 600 nm was measured at 37 °C in a multi-mode microplate reader (Fluostar Optima, BMG Labtech GmbH, Offenburg, Germany) for 25 s, aperiod in which the absorbance increased linearly from the beginning. The specific absorbance (used to obtain the final results) was calculated after subtraction of the background absorbance generated in wells containing a blank solution, i.e., all components except the COX isoform, which were replaced by a Tris–HCl buffer solution.
Control experiments were carried out simultaneously by replacing the test drugs (new compounds and reference inhibitors) with appropriate dilutions of the vehicles. In addition, the possible capacity of the above test drugs to modify the absorbance of the reaction mixture due to non-enzymatic inhibition (e.g., for directly reacting with TMPD) was determined by adding these drugs to solutions containing only TMPD in a Tris–HCl buffer solution.

hMAO-A = target: T2, hMAO-A (Homo sapiens, UniProt P21397); assay: hMAO-A enzymatic inhibition, Amplex Red MAO assay (H2O2 from p-tyramine); assay type: biochemical
T2 construct: purchased Sigma-Aldrich; host or cells: insect cells (BTI-TN-5B1-4) infected with recombinant baculovirus; microsomal preparation
T2 sequence (P21397 1-527): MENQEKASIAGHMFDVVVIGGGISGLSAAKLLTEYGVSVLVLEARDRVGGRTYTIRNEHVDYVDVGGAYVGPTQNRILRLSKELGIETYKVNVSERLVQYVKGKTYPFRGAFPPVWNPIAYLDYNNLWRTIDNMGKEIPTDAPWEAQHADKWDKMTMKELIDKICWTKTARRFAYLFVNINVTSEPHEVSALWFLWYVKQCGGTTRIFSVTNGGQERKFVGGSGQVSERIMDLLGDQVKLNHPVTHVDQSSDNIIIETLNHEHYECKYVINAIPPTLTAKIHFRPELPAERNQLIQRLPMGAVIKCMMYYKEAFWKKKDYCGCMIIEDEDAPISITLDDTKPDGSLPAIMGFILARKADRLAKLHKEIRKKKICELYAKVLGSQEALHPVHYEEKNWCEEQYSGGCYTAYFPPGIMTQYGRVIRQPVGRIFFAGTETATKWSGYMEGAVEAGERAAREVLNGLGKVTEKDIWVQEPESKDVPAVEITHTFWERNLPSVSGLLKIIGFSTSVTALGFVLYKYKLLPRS
Source text: The biological evaluation on hMAO activity was investigated by measuring effects on the production of hydrogen peroxide (H2O2) from p-tyramine, using the Amplex® Red MAO assay kit and microsomal isoforms prepared from insect cells (BTI-TN-5B1-4) infected with recombinant baculovirus containing cDNA inserts for hMAO-A and hMAO-B. The production of H2O2 catalysed by the MAO isoforms was detected using 10-acetyl-3,7-dihydroxyphenoxazine (Amplex® Red reagent), a non fluorescent and highly sensitive probe that reacts with H2O2 in the presence of horseradish peroxidase to produce a fluorescent product, resorufin. […]
After this incubation period, the reaction was started by adding (final concentrations) 200 μM Amplex® Red reagent, 1 U/mL horseradish peroxidase and 1 mMp-tyramine. […] In addition, the possible capacity of the above test drugs to modify the fluorescence generated in the reaction mixture due to non-enzymatic inhibition (e.g., for directly reacting with Amplex® Red reagent) was determined by adding these drugs to solutions containing only the Amplex® Red reagent in a sodium phosphate buffer. To determine the kinetic parameters of hMAO (Km and Vmax), the corresponding enzymatic activity was evaluated (under the experimental conditions described above) in the presence of a number (a wide range) of p-tyramine concentrations. […]

hMAO-B [1] = target: T3, hMAO-B (Homo sapiens, UniProt P27338); assay: hMAO-B enzymatic inhibition, Amplex Red MAO assay (H2O2 from p-tyramine); assay type: biochemical
T3 construct: purchased Sigma-Aldrich; host or cells: insect cells (BTI-TN-5B1-4) infected with recombinant baculovirus; microsomal preparation
T3 sequence (P27338 1-520): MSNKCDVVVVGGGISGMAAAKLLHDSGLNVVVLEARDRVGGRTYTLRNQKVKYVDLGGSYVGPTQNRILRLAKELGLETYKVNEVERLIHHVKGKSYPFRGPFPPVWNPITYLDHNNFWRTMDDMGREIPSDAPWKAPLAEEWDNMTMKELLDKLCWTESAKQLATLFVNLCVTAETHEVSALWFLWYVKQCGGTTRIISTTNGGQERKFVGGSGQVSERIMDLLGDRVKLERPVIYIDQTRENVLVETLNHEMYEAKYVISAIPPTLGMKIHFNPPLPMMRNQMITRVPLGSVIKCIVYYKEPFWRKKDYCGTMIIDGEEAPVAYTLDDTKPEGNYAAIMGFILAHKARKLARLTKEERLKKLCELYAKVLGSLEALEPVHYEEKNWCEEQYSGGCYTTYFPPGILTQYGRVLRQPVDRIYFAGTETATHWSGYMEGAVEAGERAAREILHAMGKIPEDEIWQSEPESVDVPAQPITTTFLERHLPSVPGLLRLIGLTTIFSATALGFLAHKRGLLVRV
Source text: The biological evaluation on hMAO activity was investigated by measuring effects on the production of hydrogen peroxide (H2O2) from p-tyramine, using the Amplex® Red MAO assay kit and microsomal isoforms prepared from insect cells (BTI-TN-5B1-4) infected with recombinant baculovirus containing cDNA inserts for hMAO-A and hMAO-B. The production of H2O2 catalysed by the MAO isoforms was detected using 10-acetyl-3,7-dihydroxyphenoxazine (Amplex® Red reagent), a non fluorescent and highly sensitive probe that reacts with H2O2 in the presence of horseradish peroxidase to produce a fluorescent product, resorufin.
The selected compounds were dissolved in DMSO (Sigma-Aldrich, Alcobendas, Madrid, Spain) to prepare 10 mM stock solutions, which were kept for storage at −20 °C. Percentage of DMSO used in the experiments was never higher than 1%. Human recombinant MAO isoforms (native enzymes), used in the experiments, were purchased from Sigma-Aldrich (Alcobendas, Madrid, Spain). Test compounds were acquired from Sigma-Aldrich and Vitro S.A. (Madrid, Spain).
After this incubation period, the reaction was started by adding (final concentrations) 200 μM Amplex® Red reagent, 1 U/mL horseradish peroxidase and 1 mMp-tyramine. […] Control experiments were carried out simultaneously by replacing the test drugs (new compounds and reference inhibitor) with appropriate dilutions of the vehicles. In addition, the possible capacity of the above test drugs to modify the fluorescence generated in the reaction mixture due to non-enzymatic inhibition (e.g., for directly reacting with Amplex® Red reagent) was determined by adding these drugs to solutions containing only the Amplex® Red reagent in a sodium phosphate buffer. To determine the kinetic parameters of hMAO (Km and Vmax), the corresponding enzymatic activity was evaluated (under the experimental conditions described above) in the presence of a number (a wide range) of p-tyramine concentrations.
The specific fluorescence emission (used to obtain the final results) was calculated after subtraction of the background activity, which was determined from wells containing all components except the hMAO, which were replaced by a sodium phosphate buffer solution.

hMAO-B [2] = test system: hMAO-B; parameters: method as in PMID 19948168, PMID 14965331; conditions: cited from earlier work
[3] = Table 2, mean ± S.E.M., n = 3, control assays, read-out: IC50 hCOX-1
[4] = Table 3, mean ± S.E.M., n = 3, rational assays selected by the modeling, read-out: IC50 hCOX-1
[5] = Table 2, mean ± S.E.M., n = 3, rational assays selected by the modeling, read-out: IC50 hMAO-B
[6] = highest concentration tested 100 μM, read-out: IC50 hMAO-B (rounded)
[7] = highest concentration tested 100 μM, read-out: IC50 hCOX-1 (rounded)
[8] = Table 3, mean ± S.E.M., n = 3, control assays, read-out: IC50 hMAO-B

COc1ccc(-c2nc(C(=O)N3CCN(C)CC3)sc2-c2ccc(OC)cc2)cc1 [FR122047]
IC50 (hCOX-1; [3]): 0.094 ± 0.006 µM | IC50 (hCOX-1; [4]): 0.094 ± 0.006 µM

COc1ccc2nc(NC(=O)Nc3ccccc3)sc2c1 [Frentizole]
IC50 (hCOX-1; [3]): > 100 µM | IC50 (hMAO-A; Table 2, mean ± S.E.M., n = 3, control assays, read-out: IC50 hMAO-A): > 100 µM | IC50 (hMAO-B [1]; [5]): > 100 µM | IC50 (hMAO-B [1]; [6]): > 100 µM

Cc1cccc(-c2n[nH]cc2-c2ccc3ncccc3n2)n1 [GW786460X]
IC50 (hCOX-1; [4]): > 100 µM | IC50 (hCOX-1; [7]): > 100 µM | IC50 (hMAO-B [1]; [8]): > 100 µM

O=Nc1c(-c2c(O)[nH]c3ccccc23)[nH]c2ccccc12 [Indirubin-3′-monoxime, indirubin-3′-monoxime]
inhibition at 25 µM (hCOX-1): 28% | IC50 (hMAO-B [1]; [8]): > 100 µM

CS(=O)(=O)CCNCc1ccc(-c2ccc3ncnc(Nc4ccc(OCc5cccc(F)c5)c(Cl)c4)c3c2)o1 [Lapatinib, lapatinib]
inhibition at 25 µM (hCOX-1): 19.5% | IC50 (hMAO-B [1]; [8]): > 100 µM

COc1cc(/C=C/C(=O)N2CCC=CC2=O)cc(OC)c1OC [Piperlongumine, piperlongumine]
IC50 (hCOX-1): > 100 µM | IC50 (hMAO-A): > 100 µM | IC50 (hMAO-B [1]; [5]): 65.1 ± 2.99 µM | IC50 (hMAO-B [1]; [6]): 65 µM

O=C1NC(=O)C(c2c[nH]c3ccccc23)=C1c1c[nH]c2ccccc12 [RO-316233]
IC50 (hCOX-1; [4]): 25.4 ± 3.8 µM | IC50 (hCOX-1; [7]): 25 µM | IC50 (hMAO-B [1]; [8]): > 100 µM

Oc1ccc(-c2nc(-c3ccncc3)c(-c3ccc(F)cc3)[nH]2)cc1 [SB-202190]
IC50 (hCOX-1; [4]): 23.6 ± 3.53 µM | IC50 (hCOX-1; [7]): 24 µM | IC50 (hMAO-B [1]; [8]): > 100 µM

NS(=O)(=O)Cc1noc2ccccc12 [zonisamide]
IC50 (hMAO-B [2]; read-out: IC50 of zonisamide (MAO-B)): ~25 µM | Ki (hMAO-B [2]; read-out: Ki of zonisamide (MAO-B)): 3.1 µM
